# Experimental data as given in PubChem BioAssay AID256 (DTP/NCI, 2004).
# “And” between values parts separate entries of the source, which are not always exact repeats. Equal entries are not always repeated. Toxic doses and inconclusive results are not listed.
# Tested on: CD2F1 mice, L1210 leukemia ip, survival T/C
# Test: NCI In Vivo Anticancer Drug Screen. Data for tumor model L1210 Leukemia (intraperitoneal) in CD2F1 (CDF1) mice
# Details: higher = longer survival
# Procedure, shortened: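 Mice carrying a transplanted tumor received test compound or vehicle alone. The value is the measurement in the treated group divided by that in the vehicle-treated control group.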
# [1] = endpoint: mean survival time, dose: 100.0 mg/kg/injection, schedule: Q01DX009 (ip), vehicle: saline with Tween-80
# [2] = endpoint: mean survival time, dose: 200.0 mg/kg/injection, schedule: Q01DX009 (ip), vehicle: saline with Tween-80
# [3] = endpoint: mean survival time, dose: 400.0 mg/kg/injection, schedule: Q01DX009 (ip), vehicle: saline with Tween-80
# [4] = endpoint: mean survival time, dose: 100.0 mg/kg/injection, schedule: Q04DX003 (ip), vehicle: saline with Tween-80
# [5] = endpoint: mean survival time, dose: 200.0 mg/kg/injection, schedule: Q04DX003 (ip), vehicle: saline with Tween-80
# [6] = endpoint: mean survival time, dose: 50.0 mg/kg/injection, schedule: Q04DX002 (ip), vehicle: saline with Tween-80
# [7] = endpoint: mean survival time, dose: 100.0 mg/kg/injection, schedule: Q04DX002 (ip), vehicle: saline with Tween-80
# [8] = endpoint: mean survival time, dose: 200.0 mg/kg/injection, schedule: Q04DX002 (ip), vehicle: saline with Tween-80
# [9] = endpoint: mean survival time, dose: 400.0 mg/kg/injection, schedule: Q04DX002 (ip), vehicle: saline with Tween-80
# [10] = endpoint: mean survival time, dose: 25.0 mg/kg/injection, schedule: Q01DX009 (ip), vehicle: saline with Tween-80
smiles,measurement,setting,value
O=C(O)C1(C(=O)O)CCCCC1.[NH-]CC1(C[NH-])CCCCC1.[Pt+2],T/C,"endpoint: mean survival time, dose: 30.0 mg/kg/injection, schedule: Q04DX003 (ip), vehicle: suspension in saline",118 % of control
same,T/C,"endpoint: mean survival time, dose: 60.0 mg/kg/injection, schedule: Q04DX003 (ip), vehicle: suspension in saline",118 % of control
COc1cc([N+](=O)[O-])ccc1NC(=O)Oc1ccccc1F,T/C,[1],109 % of control
same,T/C,[2],109 % of control
same,T/C,[3],108 % of control
Cc1cc(C)c(C(=O)CCCC(=O)O)c(C)c1,T/C,[4],94 % of control
same,T/C,[5],92 % of control
CCCCC(CCCC)CS(=O)[O-].[C-]#[O+].[C-]#[O+].[Fe+6].[c-]1[c-][c-][cH-][c-]1,T/C,"endpoint: mean survival time, dose: 25.0 mg/kg/injection, schedule: Q04DX002 (ip), vehicle: saline",102 % of control
same,T/C,"endpoint: mean survival time, dose: 50.0 mg/kg/injection, schedule: Q04DX002 (ip), vehicle: saline",87 % of control
same,T/C,"endpoint: mean survival time, dose: 100.0 mg/kg/injection, schedule: Q04DX002 (ip), vehicle: saline",106 % of control
CC(CO)CC/C(=N\O)C(C)C1/C(=N/O)CC2C=C3CC(O)CCC3(C)CC21C (configuration not stated),T/C,[4],92 % of control
same,T/C,[5],92 % of control
same,T/C,"endpoint: mean survival time, dose: 400.0 mg/kg/injection, schedule: Q04DX003 (ip), vehicle: saline with Tween-80",87 % of control
CNc1nc(SC)nc2c1cnn2C1OC(CO)C(O)C1O (configuration not stated),T/C,"endpoint: median survival time, dose: 10.75 mg/kg/injection, schedule: Q01DX005 (ip), vehicle: saline with Tween-80",103 % of control
same,T/C,"endpoint: median survival time, dose: 21.5 mg/kg/injection, schedule: Q01DX005 (ip), vehicle: saline with Tween-80",97 % of control
same,T/C,"endpoint: median survival time, dose: 43.0 mg/kg/injection, schedule: Q01DX005 (ip), vehicle: saline with Tween-80",107 % of control
same,T/C,"endpoint: median survival time, dose: 86.0 mg/kg/injection, schedule: Q01DX005 (ip), vehicle: saline with Tween-80",100 % of control
CCOC(=O)C(=O)C1CCc2c(ccc3ccccc23)C1=O (configuration not stated),T/C,[6],93 % of control
same,T/C,"endpoint: mean survival time, dose: 100.0 mg/kg/injection, schedule: Q01DX001 (ip), vehicle: Klucel (hydroxypropylcellulose) (HPC)",91 % of control
same,T/C,[7],96 % of control
same,T/C,"endpoint: mean survival time, dose: 200.0 mg/kg/injection, schedule: Q01DX001 (ip), vehicle: Klucel (hydroxypropylcellulose) (HPC)",93 % of control
same,T/C,[8],96 % of control
CC(CN=Cc1ccccc1N)N=Cc1ccccc1N (configuration not stated),T/C,[6],93 % of control
same,T/C,[7],97 % of control
same,T/C,[8],97 % of control
same,T/C,[9],113 % of control
CC1COC(Nc2cccc3c2CCCC3)=N1 (configuration not stated),T/C,"endpoint: mean survival time, dose: 12.5 mg/kg/injection, schedule: Q04DX003 (ip), vehicle: saline with Tween-80",97 % of control
same,T/C,"endpoint: mean survival time, dose: 25.0 mg/kg/injection, schedule: Q04DX003 (ip), vehicle: saline with Tween-80",97 % of control
same,T/C,"endpoint: mean survival time, dose: 50.0 mg/kg/injection, schedule: Q04DX003 (ip), vehicle: saline with Tween-80",97 % of control
O=C(O)c1ccc([N+](=O)[O-])cc1Br,T/C,[7],96 % of control
same,T/C,[8],107 % of control
same,T/C,[9],100 % of control
O=NN(CCCl)C(=O)NC1[C@H](O)CCC[C@@H]1O (some centres not stated),T/C,"endpoint: median survival time, dose: 0.63 mg/kg/injection, schedule: Q01DX009 (ip), vehicle: saline",167 % of control
same,T/C,"endpoint: median survival time, dose: 1.25 mg/kg/injection, schedule: Q01DX009 (ip), vehicle: saline",229 % of control and 108 % of control
same,T/C,"endpoint: median survival time, dose: 2.5 mg/kg/injection, schedule: Q01DX009 (ip), vehicle: saline",348 % of control and 365 % of control
same,T/C,"endpoint: median survival time, dose: 5.0 mg/kg/injection, schedule: Q01DX009 (ip), vehicle: saline",348 % of control and 365 % of control
same,T/C,"endpoint: median survival time, dose: 10.0 mg/kg/injection, schedule: Q01DX009 (ip), vehicle: saline",195 % of control and 218 % of control
same,T/C,"endpoint: median survival time, dose: 20.0 mg/kg/injection, schedule: Q01DX009 (ip), vehicle: saline",93 % of control and 101 % of control
CCC1C(=O)OCc2c1cc1n(c2=O)Cc2cc3ccccc3nc2-1 (configuration not stated),T/C,"endpoint: mean survival time, dose: 7.39 mg/kg/injection, schedule: Q01DX001 (ip), vehicle: saline",101 % of control
same,T/C,"endpoint: mean survival time, dose: 11.1 mg/kg/injection, schedule: Q01DX001 (ip), vehicle: saline",101 % of control
same,T/C,"endpoint: mean survival time, dose: 16.6 mg/kg/injection, schedule: Q01DX001 (ip), vehicle: saline",100 % of control
same,T/C,"endpoint: mean survival time, dose: 25.0 mg/kg/injection, schedule: Q01DX001 (ip), vehicle: saline",111 % of control
CCN(CC)CCCC(C)Nc1cc(C)nc(Nc2nc3cc(Cl)c(Cl)cc3[nH]2)n1 (configuration not stated),T/C,"endpoint: mean survival time, dose: 5.0 mg/kg/injection, schedule: Q04DX003 (ip), vehicle: saline with Tween-80",101 % of control
same,T/C,"endpoint: mean survival time, dose: 10.0 mg/kg/injection, schedule: Q04DX003 (ip), vehicle: saline with Tween-80",94 % of control
same,T/C,"endpoint: mean survival time, dose: 20.0 mg/kg/injection, schedule: Q04DX003 (ip), vehicle: saline with Tween-80",91 % of control
CC(=O)Oc1cccc2c1C(=O)c1c(OC(C)=O)cccc1C2=O,T/C,"endpoint: mean survival time, dose: 25.0 mg/kg/injection, schedule: Q01DX009 (ip), vehicle: water",102 % of control
same,T/C,"endpoint: mean survival time, dose: 50.0 mg/kg/injection, schedule: Q01DX009 (ip), vehicle: water",93 % of control
same,T/C,"endpoint: mean survival time, dose: 100.0 mg/kg/injection, schedule: Q01DX009 (ip), vehicle: water",96 % of control
same,T/C,"endpoint: mean survival time, dose: 200.0 mg/kg/injection, schedule: Q01DX009 (ip), vehicle: water",88 % of control
O/N=C/c1ccccc1O.O/N=C/c1ccccc1O.[Cu],T/C,"endpoint: mean survival time, dose: 1.56 mg/kg/injection, schedule: Q01DX009 (ip), vehicle: saline with Tween-80",98 % of control and 103 % of control
same,T/C,"endpoint: mean survival time, dose: 3.12 mg/kg/injection, schedule: Q01DX009 (ip), vehicle: saline with Tween-80",102 % of control and 106 % of control
same,T/C,"endpoint: mean survival time, dose: 6.25 mg/kg/injection, schedule: Q01DX009 (ip), vehicle: saline with Tween-80",93 % of control and 101 % of control
same,T/C,"endpoint: mean survival time, dose: 12.5 mg/kg/injection, schedule: Q01DX009 (ip), vehicle: saline with Tween-80",100 % of control and 108 % of control
same,T/C,[10],114 % of control and 100 % of control
CN=C(N)N/N=C(\C)c1ccc2oc3ccc(/C(C)=N/NC(N)=NC)cc3c2c1,T/C,"endpoint: median survival time, dose: 4.7 mg/kg/injection, schedule: Q01DX009 (ip), vehicle: saline with Tween-80",123 % of control
same,T/C,"endpoint: median survival time, dose: 6.25 mg/kg/injection, schedule: Q01DX009 (ip), vehicle: saline with Tween-80",117 % of control
same,T/C,"endpoint: median survival time, dose: 9.38 mg/kg/injection, schedule: Q01DX009 (ip), vehicle: saline with Tween-80",121 % of control
same,T/C,"endpoint: median survival time, dose: 12.5 mg/kg/injection, schedule: Q01DX009 (ip), vehicle: saline with Tween-80",123 % of control
same,T/C,"endpoint: median survival time, dose: 50.0 mg/kg/injection, schedule: Q01DX009 (ip), vehicle: saline with Tween-80",122 % of control
same,T/C,"endpoint: median survival time, dose: 75.0 mg/kg/injection, schedule: Q01DX009 (ip), vehicle: saline with Tween-80",90 % of control
CC1OC2CC(O)C1(O)C1=C2C(O)=C(C(N)=O)C(=N)C1=O (configuration not stated),T/C,"endpoint: median survival time, dose: 0.31 mg/kg/injection, schedule: Q01DX005 (ip), vehicle: saline",101 % of control
same,T/C,"endpoint: median survival time, dose: 0.62 mg/kg/injection, schedule: Q01DX005 (ip), vehicle: saline",101 % of control
same,T/C,"endpoint: median survival time, dose: 1.25 mg/kg/injection, schedule: Q01DX005 (ip), vehicle: saline",101 % of control
same,T/C,"endpoint: median survival time, dose: 2.5 mg/kg/injection, schedule: Q01DX005 (ip), vehicle: saline",98 % of control
same,T/C,"endpoint: median survival time, dose: 5.0 mg/kg/injection, schedule: Q01DX005 (ip), vehicle: saline",108 % of control
C(#[C][Ge]([C]#Cc1ccccc1)([C]#Cc1ccccc1)[C]#Cc1ccccc1)c1ccccc1,T/C,[10],91 % of control
same,T/C,"endpoint: mean survival time, dose: 50.0 mg/kg/injection, schedule: Q01DX009 (ip), vehicle: saline with Tween-80",88 % of control
same,T/C,[1],96 % of control
same,T/C,[2],90 % of control
COc1ccccc1NC(=O)c1ccccc1,T/C,[1],98 % of control
same,T/C,[2],114 % of control
same,T/C,[3],104 % of control
O=C(CI)NCc1cn(C2CC(O)C(CO)O2)c(=O)[nH]c1=O (configuration not stated),T/C,"endpoint: mean survival time, dose: 4.0 mg/kg/injection, schedule: Q01DX005 (ip), vehicle: water",106 % of control
same,T/C,"endpoint: mean survival time, dose: 8.0 mg/kg/injection, schedule: Q01DX005 (ip), vehicle: water",114 % of control
same,T/C,"endpoint: mean survival time, dose: 16.0 mg/kg/injection, schedule: Q01DX005 (ip), vehicle: water",106 % of control
same,T/C,"endpoint: mean survival time, dose: 32.0 mg/kg/injection, schedule: Q01DX005 (ip), vehicle: water",111 % of control
same,T/C,"endpoint: mean survival time, dose: 64.0 mg/kg/injection, schedule: Q01DX005 (ip), vehicle: water",114 % of control
